Results: ChEMBL document CHEMBL1201862, “PubChem BioAssay data set” (2004)
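48-hour exposure; five concentrations; linearly interpolated endpoints. GI50 = concentration required for 50% inhibition of growth.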 Calls of active or inactive are those of the source. Cut-off read from the data, not from the text of the source: active = GI50 up to about 1.1 µM and inactive = higher.

Tests used:
Test in all cases: NCI tumour cell line growth inhibition, 48 h
[1] = tested on: HOP-62
[2] = tested on: Malme-3M
[3] = tested on: UACC-257
[4] = tested on: KM12
[5] = tested on: DU-145
[6] = tested on: SN12C
[7] = tested on: SK-MEL-2
[8] = tested on: T47D
[9] = tested on: NCI-H23
[10] = tested on: SR
[11] = tested on: SW-620
[12] = tested on: MCF7
[13] = tested on: RXF 393
[14] = tested on: RPMI-8226
[15] = tested on: UACC-62
[16] = tested on: BT-549
[17] = tested on: SK-OV-3
[18] = tested on: SK-MEL-5
[19] = tested on: OVCAR-8
[20] = tested on: MDA-MB-435
[21] = tested on: COLO 205
[22] = tested on: OVCAR-3
[23] = tested on: MOLT-4
[24] = tested on: LOX IMVI
[25] = tested on: U-251
[26] = tested on: NCI-H460
[27] = tested on: HCT-15
[28] = tested on: UO-31
[29] = tested on: NCI-H522
[30] = tested on: IGROV-1
[31] = tested on: OVCAR-4
[32] = tested on: CAKI-1
[33] = tested on: SNB-19
[34] = tested on: OVCAR-5
[35] = tested on: SF-295
[36] = tested on: HCT-116
[37] = tested on: HL-60
[38] = tested on: NCI/ADR-RES
[39] = tested on: ACHN
[40] = tested on: HOP-92
[41] = tested on: MDA-N
[42] = tested on: A549
[43] = tested on: SF-268
[44] = tested on: SNB-75
[45] = tested on: CCRF-CEM
[46] = tested on: TK-10
[47] = tested on: SF-539
[48] = tested on: PC-3
[49] = tested on: EKVX
[50] = tested on: HT-29
[51] = tested on: 786-0
[52] = tested on: M14
[53] = tested on: MDA-MB-231
[54] = tested on: K562
[55] = tested on: NCI-H226
[56] = tested on: SK-MEL-28
[57] = tested on: A498
[58] = tested on: Hs-578T
[59] = tested on: HCC 2998

Compound: O=C1C(c2c(O)[nH]c3ccc(I)cc23)=Nc2ccccc21
- GI50 [1]: 4.7 µM (inactive)
- GI50 [2]: 8.17 µM (inactive)
- GI50 [3]: 17.9 µM (inactive)
- GI50 [4]: 5.24 µM (inactive)
- GI50 [5]: 4.74 µM (inactive)
- GI50 [6]: 9.25 µM (inactive)
- GI50 [7]: 3.78 µM (inactive)
- GI50 [8]: 3.51 µM (inactive)
- GI50 [9]: 5.61 µM (inactive)
- GI50 [10]: 10.8 µM (inactive)
- GI50 [11]: 13.2 µM (inactive)
- GI50 [12]: 4.07 µM (inactive)
- GI50 [13]: 3.24 µM (inactive)
- GI50 [14]: 9.51 µM (inactive)
- GI50 [15]: 4.66 µM (inactive)
- GI50 [16]: 7.53 µM (inactive)
- GI50 [17]: 3.97 µM (inactive)
- GI50 [18]: 2.57 µM (inactive)
- GI50 [19]: 2.15 µM (inactive)
- GI50 [20]: 12.1 µM (inactive)
- GI50 [21]: 11.6 µM (inactive)
- GI50 [22]: 5.71 µM (inactive)
- GI50 [23]: 49.2 µM (inactive)
- GI50 [24]: 4.88 µM (inactive)
- GI50 [25]: 2.87 µM (inactive)
- GI50 [26]: 10.4 µM (inactive)
- GI50 [27]: 7.21 µM
- GI50 [28]: 4.02 µM (inactive)
- GI50 [29]: 4.2 µM (inactive)
- GI50 [30]: 0.0873 µM (active)
- GI50 [31]: 4.06 µM (inactive)
- GI50 [32]: 7.06 µM (inactive)
- GI50 [33]: 4.95 µM (inactive)
- GI50 [34]: 11.8 µM (inactive)
- GI50 [35]: 4.88 µM (inactive)
- GI50 [36]: 1.67 µM (inactive)
- GI50 [37]: > 100 µM (inactive)
- GI50 [38]: 6 µM (inactive)
- GI50 [39]: 3.23 µM (inactive)
- GI50 [40]: 3.24 µM (inactive)
- GI50 [41]: 6.68 µM (inactive)
- GI50 [42]: 3.84 µM (inactive)
- GI50 [43]: 4.07 µM (inactive)
- GI50 [44]: 4.23 µM (inactive)
- GI50 [45]: 39.6 µM (inactive)
- GI50 [46]: 4.54 µM (inactive)
- GI50 [47]: 5.27 µM (inactive)
- GI50 [48]: 2.94 µM (inactive)
- GI50 [49]: 4.67 µM (inactive)
- GI50 [50]: 7.1 µM (inactive)
- GI50 [51]: 2.02 µM (inactive)
- GI50 [52]: 14 µM (inactive)
- GI50 [53]: 2.65 µM (inactive)
- GI50 [54]: 9.66 µM (inactive)
- GI50 [55]: 2.55 µM (inactive)
- GI50 [56]: 11.2 µM (inactive)
- GI50 [57]: 1.9 µM (inactive)
- GI50 [58]: 6.78 µM (inactive)

Compound: COc1ccc2c(c1)-c1c(c3cc(OC)ccc3n1CCN(C)C)CC2
- GI50 [1]: 15.8 µM (inactive)
- GI50 [2]: 16.1 µM (inactive)
- GI50 [3]: 15.6 µM (inactive)
- GI50 [4]: 14 µM (inactive)
- GI50 [5]: 13.7 µM (inactive)
- GI50 [6]: 12.9 µM (inactive)
- GI50 [7]: 14.5 µM (inactive)
- GI50 [8]: 17.6 µM (inactive)
- GI50 [9]: 15.5 µM (inactive)
- GI50 [10]: 7.03 µM (inactive)
- GI50 [11]: 15.2 µM (inactive)
- GI50 [12]: 14.4 µM (inactive)
- GI50 [13]: 13.5 µM (inactive)
- GI50 [14]: 12.1 µM (inactive)
- GI50 [15]: 10.9 µM (inactive)
- GI50 [16]: 13.9 µM (inactive)
- GI50 [17]: 21.5 µM (inactive)
- GI50 [18]: 12.4 µM (inactive)
- GI50 [19]: 17.4 µM (inactive)
- GI50 [20]: 12.6 µM (inactive)
- GI50 [21]: 12.2 µM (inactive)
- GI50 [22]: 14.3 µM (inactive)
- GI50 [23]: 10.7 µM (inactive)
- GI50 [25]: 11.2 µM (inactive)
- GI50 [26]: 12.2 µM (inactive)
- GI50 [27]: 13.6 µM
- GI50 [28]: 11.1 µM (inactive)
- GI50 [29]: 17.9 µM (inactive)
- GI50 [30]: 12.1 µM (inactive)
- GI50 [31]: 17.1 µM (inactive)
- GI50 [32]: 14.6 µM (inactive)
- GI50 [34]: 15.7 µM (inactive)
- GI50 [35]: 17.8 µM (inactive)
- GI50 [36]: 12.1 µM (inactive)
- GI50 [38]: 16.3 µM (inactive)
- GI50 [59]: 7.48 µM (inactive)
- GI50 [39]: 15.1 µM (inactive)
- GI50 [40]: 14.1 µM (inactive)
- GI50 [41]: 14.2 µM (inactive)
- GI50 [42]: 15.4 µM (inactive)
- GI50 [43]: 18.3 µM (inactive)
- GI50 [44]: 21.9 µM (inactive)
- GI50 [45]: 6.35 µM (inactive)
- GI50 [46]: 15.5 µM (inactive)
- GI50 [47]: 15.4 µM (inactive)
- GI50 [48]: 12.6 µM (inactive)
- GI50 [50]: 5.18 µM (inactive)
- GI50 [51]: 10.8 µM (inactive)
- GI50 [52]: 13.7 µM (inactive)
- GI50 [53]: 13.9 µM (inactive)
- GI50 [54]: 6.81 µM (inactive)
- GI50 [55]: 13.4 µM (inactive)
- GI50 [56]: 15.9 µM (inactive)
- GI50 [57]: 11.7 µM (inactive)
- GI50 [58]: 13.7 µM (inactive)
